The numbers were not newly measured in patent US20240180852A1, “TREATMENT FOR MALIGNANT PLEURAL EFFUSION IN HUMANS” (Signpath Pharma, Inc., priority 2021, published 2024), which cites them from elsewhere.

The conditions of data set [1]: in vivo.

With `COc1cc(C=CC(=O)CC(=O)C=Cc2ccc(O)c(OC)c2)ccc1O` [curcumin, 1,7-bis(4-hydroxy-3-methoxyphenyl)-1,6-heptadiene-3,5-dione], the solubility result is “low solubility”. Further, the bioavailability result in data set [1] is given as “low bioavailability”.
